# In the kinase profiling compilation of Christmann-Franck et al. (2016):
# Molecular target: EPHB4 (human) (UniProt P54760)
# Assay: KINOMEscan competition binding
# Settings: compound 10.0 µM
row,SMILES,"kinase still bound, per cent of control [%]"
1,COc1cc(N2CCC(N3CCN(C)CC3)CC2)ccc1Nc1ncc(Cl)c(Nc2ccccc2S(=O)(=O)C(C)C)n1,17
2,CCOc1cc(N2CCC(N3CCCCC3)CC2)ccc1Nc1nc(Nc2ccccc2S(=O)(=O)C(C)C)c2cn[nH]c2n1,99

# Molecular target: PAK2 (human) (UniProt Q13177)
# Assay: KINOMEscan competition binding
# Settings: compound 10.0 µM
# PAK2 (human), sequence (Q13177 whole entry, looked up): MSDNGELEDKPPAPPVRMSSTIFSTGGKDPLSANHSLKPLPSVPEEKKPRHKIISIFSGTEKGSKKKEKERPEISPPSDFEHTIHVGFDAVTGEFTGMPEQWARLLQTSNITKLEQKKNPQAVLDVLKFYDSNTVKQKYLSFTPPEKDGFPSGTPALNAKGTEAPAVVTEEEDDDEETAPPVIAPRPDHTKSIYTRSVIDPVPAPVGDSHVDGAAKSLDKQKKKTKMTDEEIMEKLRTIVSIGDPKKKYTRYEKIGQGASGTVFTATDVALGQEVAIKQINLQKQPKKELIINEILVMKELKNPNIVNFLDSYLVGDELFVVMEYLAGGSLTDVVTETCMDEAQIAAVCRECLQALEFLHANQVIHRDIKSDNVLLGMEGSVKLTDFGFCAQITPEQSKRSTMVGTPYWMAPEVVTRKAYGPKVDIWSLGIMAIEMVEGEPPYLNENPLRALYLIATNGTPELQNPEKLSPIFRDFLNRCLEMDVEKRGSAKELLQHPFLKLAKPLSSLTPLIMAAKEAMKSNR
row,SMILES,"kinase still bound, per cent of control [%]"
1,CCN1CCN(Cc2ccc(NC(=O)c3ccc(C)c(/C=C/c4cnc(Nc5cc(N6CCNCC6)nc(C)n5)cn4)c3)cc2C(F)(F)F)CC1,69
2,COc1cc(N2CCC(N3CCN(C)CC3)CC2)ccc1Nc1ncc(Cl)c(Nc2ccccc2S(=O)(=O)C(C)C)n1,30
3,CCOc1cc(N2CCC(N3CCCCC3)CC2)ccc1Nc1nc(Nc2ccccc2S(=O)(=O)C(C)C)c2cn[nH]c2n1,82

# Molecular target: INSRR (human) (UniProt P14616)
# Sequence (P14616 whole entry, looked up): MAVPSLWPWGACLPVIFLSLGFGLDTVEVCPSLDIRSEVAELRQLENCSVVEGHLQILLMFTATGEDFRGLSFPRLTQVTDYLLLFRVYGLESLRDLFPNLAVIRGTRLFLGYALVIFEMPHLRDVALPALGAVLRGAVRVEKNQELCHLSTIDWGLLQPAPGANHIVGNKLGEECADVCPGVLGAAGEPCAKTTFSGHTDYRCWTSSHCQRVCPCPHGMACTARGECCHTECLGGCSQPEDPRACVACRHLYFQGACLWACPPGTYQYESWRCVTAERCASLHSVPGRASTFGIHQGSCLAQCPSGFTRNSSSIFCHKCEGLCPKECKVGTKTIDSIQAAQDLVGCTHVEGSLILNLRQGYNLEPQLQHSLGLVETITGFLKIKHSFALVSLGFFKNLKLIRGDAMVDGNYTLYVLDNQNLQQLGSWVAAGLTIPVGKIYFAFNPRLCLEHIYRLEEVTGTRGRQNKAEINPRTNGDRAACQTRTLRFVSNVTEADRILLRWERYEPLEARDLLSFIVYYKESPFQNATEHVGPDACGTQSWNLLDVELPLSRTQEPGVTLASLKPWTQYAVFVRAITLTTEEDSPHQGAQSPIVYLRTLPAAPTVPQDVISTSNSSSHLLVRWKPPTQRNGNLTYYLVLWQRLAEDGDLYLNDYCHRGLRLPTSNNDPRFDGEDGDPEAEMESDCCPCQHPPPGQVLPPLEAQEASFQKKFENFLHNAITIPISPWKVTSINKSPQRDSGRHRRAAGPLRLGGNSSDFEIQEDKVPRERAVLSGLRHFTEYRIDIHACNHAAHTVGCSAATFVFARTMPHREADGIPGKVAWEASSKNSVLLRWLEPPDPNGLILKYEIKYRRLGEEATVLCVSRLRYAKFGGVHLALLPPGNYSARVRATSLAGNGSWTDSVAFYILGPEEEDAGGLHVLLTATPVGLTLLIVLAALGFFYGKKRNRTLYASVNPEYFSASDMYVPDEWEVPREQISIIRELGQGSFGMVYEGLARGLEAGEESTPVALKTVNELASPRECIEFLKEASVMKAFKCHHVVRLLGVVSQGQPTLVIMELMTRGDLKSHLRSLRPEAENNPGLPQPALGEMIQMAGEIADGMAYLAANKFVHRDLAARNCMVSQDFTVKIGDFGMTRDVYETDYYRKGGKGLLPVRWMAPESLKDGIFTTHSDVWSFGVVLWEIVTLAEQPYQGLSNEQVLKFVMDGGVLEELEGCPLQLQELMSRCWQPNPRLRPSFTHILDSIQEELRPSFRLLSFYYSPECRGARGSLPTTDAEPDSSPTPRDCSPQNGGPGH
# Assay: KINOMEscan competition binding
# Settings: compound 10.0 µM
row,SMILES,"kinase still bound, per cent of control [%]"
1,CCN1CCN(Cc2ccc(NC(=O)c3ccc(C)c(/C=C/c4cnc(Nc5cc(N6CCNCC6)nc(C)n5)cn4)c3)cc2C(F)(F)F)CC1,44
2,COc1cc(N2CCC(N3CCN(C)CC3)CC2)ccc1Nc1ncc(Cl)c(Nc2ccccc2S(=O)(=O)C(C)C)n1,0.35
3,CCOc1cc(N2CCC(N3CCCCC3)CC2)ccc1Nc1nc(Nc2ccccc2S(=O)(=O)C(C)C)c2cn[nH]c2n1,0.4
4,CCN1CCN(Cc2ccc(NC(=O)c3ccc(C)c(Oc4ccnc5[nH]ccc45)c3)cc2C(F)(F)F)CC1,23

# Molecular target: TYRO3 (human) (UniProt Q06418)
# Sequence (Q06418 whole entry, looked up): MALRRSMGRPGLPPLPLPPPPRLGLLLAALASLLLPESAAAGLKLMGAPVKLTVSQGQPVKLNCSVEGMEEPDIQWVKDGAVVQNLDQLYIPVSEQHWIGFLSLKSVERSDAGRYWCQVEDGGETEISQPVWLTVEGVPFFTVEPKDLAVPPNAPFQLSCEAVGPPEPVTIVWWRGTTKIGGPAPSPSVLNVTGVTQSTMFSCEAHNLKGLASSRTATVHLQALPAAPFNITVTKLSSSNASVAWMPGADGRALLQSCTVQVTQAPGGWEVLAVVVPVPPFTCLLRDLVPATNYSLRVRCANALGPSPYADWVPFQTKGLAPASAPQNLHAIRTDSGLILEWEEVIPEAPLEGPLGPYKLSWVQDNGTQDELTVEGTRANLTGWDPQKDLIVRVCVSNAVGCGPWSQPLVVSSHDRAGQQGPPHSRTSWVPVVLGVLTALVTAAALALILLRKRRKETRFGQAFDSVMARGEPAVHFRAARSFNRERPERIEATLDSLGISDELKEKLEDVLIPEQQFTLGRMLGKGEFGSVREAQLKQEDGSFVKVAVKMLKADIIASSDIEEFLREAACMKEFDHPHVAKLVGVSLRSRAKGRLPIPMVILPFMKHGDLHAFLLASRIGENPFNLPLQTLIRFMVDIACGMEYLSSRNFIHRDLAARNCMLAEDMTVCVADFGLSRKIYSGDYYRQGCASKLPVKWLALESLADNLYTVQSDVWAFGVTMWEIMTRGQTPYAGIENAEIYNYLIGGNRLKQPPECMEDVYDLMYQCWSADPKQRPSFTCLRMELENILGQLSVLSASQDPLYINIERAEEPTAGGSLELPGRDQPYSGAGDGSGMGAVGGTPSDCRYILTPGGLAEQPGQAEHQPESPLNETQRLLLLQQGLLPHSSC
# Assay: KINOMEscan competition binding
# Settings: compound 10.0 µM
row,SMILES,"kinase still bound, per cent of control [%]"
1,CCN1CCN(Cc2ccc(NC(=O)c3ccc(C)c(/C=C/c4cnc(Nc5cc(N6CCNCC6)nc(C)n5)cn4)c3)cc2C(F)(F)F)CC1,37
2,COc1cc(N2CCC(N3CCN(C)CC3)CC2)ccc1Nc1ncc(Cl)c(Nc2ccccc2S(=O)(=O)C(C)C)n1,24
3,CCOc1cc(N2CCC(N3CCCCC3)CC2)ccc1Nc1nc(Nc2ccccc2S(=O)(=O)C(C)C)c2cn[nH]c2n1,100

# Molecular target: SRC (human) (UniProt P12931)
# Sequence (P12931 whole entry, looked up): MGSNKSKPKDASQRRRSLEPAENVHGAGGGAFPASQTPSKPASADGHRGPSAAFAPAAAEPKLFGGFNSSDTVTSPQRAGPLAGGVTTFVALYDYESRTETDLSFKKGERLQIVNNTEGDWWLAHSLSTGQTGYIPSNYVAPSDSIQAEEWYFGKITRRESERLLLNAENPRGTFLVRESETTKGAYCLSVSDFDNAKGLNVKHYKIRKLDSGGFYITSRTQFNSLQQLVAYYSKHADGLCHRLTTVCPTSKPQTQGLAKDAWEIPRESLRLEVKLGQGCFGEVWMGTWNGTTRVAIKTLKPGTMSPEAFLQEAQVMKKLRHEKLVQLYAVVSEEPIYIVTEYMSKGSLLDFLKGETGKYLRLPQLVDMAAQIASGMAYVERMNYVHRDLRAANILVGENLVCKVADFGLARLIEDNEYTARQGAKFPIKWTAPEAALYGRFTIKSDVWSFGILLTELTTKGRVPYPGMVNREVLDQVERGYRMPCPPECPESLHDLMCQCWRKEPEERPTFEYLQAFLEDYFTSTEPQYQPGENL
# Assay: KINOMEscan competition binding
# Settings: compound 10.0 µM
row,SMILES,"kinase still bound, per cent of control [%]"
1,CCN1CCN(Cc2ccc(NC(=O)c3ccc(C)c(/C=C/c4cnc(Nc5cc(N6CCNCC6)nc(C)n5)cn4)c3)cc2C(F)(F)F)CC1,0.25
2,COc1cc(N2CCC(N3CCN(C)CC3)CC2)ccc1Nc1ncc(Cl)c(Nc2ccccc2S(=O)(=O)C(C)C)n1,0.2
3,CCOc1cc(N2CCC(N3CCCCC3)CC2)ccc1Nc1nc(Nc2ccccc2S(=O)(=O)C(C)C)c2cn[nH]c2n1,69
4,CCN1CCN(Cc2ccc(NC(=O)c3ccc(C)c(Oc4ccnc5[nH]ccc45)c3)cc2C(F)(F)F)CC1,0.2

# System: KIT (human), P10721 [V559D/T670I]
# Assay: KINOMEscan competition binding
# Settings: compound 10.0 µM
row,SMILES,"kinase still bound, per cent of control [%]"
1,CCN1CCN(Cc2ccc(NC(=O)c3ccc(C)c(/C=C/c4cnc(Nc5cc(N6CCNCC6)nc(C)n5)cn4)c3)cc2C(F)(F)F)CC1,14
2,COc1cc(N2CCC(N3CCN(C)CC3)CC2)ccc1Nc1ncc(Cl)c(Nc2ccccc2S(=O)(=O)C(C)C)n1,0.95
3,CCOc1cc(N2CCC(N3CCCCC3)CC2)ccc1Nc1nc(Nc2ccccc2S(=O)(=O)C(C)C)c2cn[nH]c2n1,100
4,CCN1CCN(Cc2ccc(NC(=O)c3ccc(C)c(Oc4ccnc5[nH]ccc45)c3)cc2C(F)(F)F)CC1,0.05

# Molecular target: PTK6 (human) (UniProt Q13882)
# Assay: KINOMEscan competition binding
# Settings: compound 10.0 µM
row,SMILES,"kinase still bound, per cent of control [%]"
1,CCN1CCN(Cc2ccc(NC(=O)c3ccc(C)c(/C=C/c4cnc(Nc5cc(N6CCNCC6)nc(C)n5)cn4)c3)cc2C(F)(F)F)CC1,91
2,COc1cc(N2CCC(N3CCN(C)CC3)CC2)ccc1Nc1ncc(Cl)c(Nc2ccccc2S(=O)(=O)C(C)C)n1,0.15
3,CCOc1cc(N2CCC(N3CCCCC3)CC2)ccc1Nc1nc(Nc2ccccc2S(=O)(=O)C(C)C)c2cn[nH]c2n1,10
4,CCN1CCN(Cc2ccc(NC(=O)c3ccc(C)c(Oc4ccnc5[nH]ccc45)c3)cc2C(F)(F)F)CC1,28

# Molecular target: BLK (human) (UniProt P51451)
# Sequence (P51451 whole entry, looked up): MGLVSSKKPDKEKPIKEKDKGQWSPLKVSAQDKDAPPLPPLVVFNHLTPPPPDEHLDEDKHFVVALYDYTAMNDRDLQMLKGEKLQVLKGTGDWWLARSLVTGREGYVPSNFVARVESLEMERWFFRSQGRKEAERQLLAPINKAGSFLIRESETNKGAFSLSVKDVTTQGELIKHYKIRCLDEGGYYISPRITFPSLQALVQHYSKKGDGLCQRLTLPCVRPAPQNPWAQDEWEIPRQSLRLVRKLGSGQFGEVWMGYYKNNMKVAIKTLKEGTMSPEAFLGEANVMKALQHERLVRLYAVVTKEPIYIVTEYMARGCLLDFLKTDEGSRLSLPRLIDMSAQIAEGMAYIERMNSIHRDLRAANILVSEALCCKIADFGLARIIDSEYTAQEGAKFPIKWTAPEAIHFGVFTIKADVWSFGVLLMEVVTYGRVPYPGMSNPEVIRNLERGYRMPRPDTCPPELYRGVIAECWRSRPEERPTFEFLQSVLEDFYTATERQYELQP
# Assay: KINOMEscan competition binding
# Settings: compound 10.0 µM
row,SMILES,"kinase still bound, per cent of control [%]"
1,CCN1CCN(Cc2ccc(NC(=O)c3ccc(C)c(/C=C/c4cnc(Nc5cc(N6CCNCC6)nc(C)n5)cn4)c3)cc2C(F)(F)F)CC1,0.1
2,COc1cc(N2CCC(N3CCN(C)CC3)CC2)ccc1Nc1ncc(Cl)c(Nc2ccccc2S(=O)(=O)C(C)C)n1,0.1
3,CCOc1cc(N2CCC(N3CCCCC3)CC2)ccc1Nc1nc(Nc2ccccc2S(=O)(=O)C(C)C)c2cn[nH]c2n1,100
4,CCN1CCN(Cc2ccc(NC(=O)c3ccc(C)c(Oc4ccnc5[nH]ccc45)c3)cc2C(F)(F)F)CC1,0.45

# Molecular target: DMPK (human) (UniProt Q09013)
# Assay: KINOMEscan competition binding
# Settings: compound 10.0 µM
row,SMILES,"kinase still bound, per cent of control [%]"
1,CCN1CCN(Cc2ccc(NC(=O)c3ccc(C)c(/C=C/c4cnc(Nc5cc(N6CCNCC6)nc(C)n5)cn4)c3)cc2C(F)(F)F)CC1,100
2,COc1cc(N2CCC(N3CCN(C)CC3)CC2)ccc1Nc1ncc(Cl)c(Nc2ccccc2S(=O)(=O)C(C)C)n1,1.8
3,CCOc1cc(N2CCC(N3CCCCC3)CC2)ccc1Nc1nc(Nc2ccccc2S(=O)(=O)C(C)C)c2cn[nH]c2n1,70

# Molecular target: PRKACA (human) (UniProt P17612)
# Assay: KINOMEscan competition binding
# Settings: compound 10.0 µM
row,SMILES,"kinase still bound, per cent of control [%]"
1,CCN1CCN(Cc2ccc(NC(=O)c3ccc(C)c(/C=C/c4cnc(Nc5cc(N6CCNCC6)nc(C)n5)cn4)c3)cc2C(F)(F)F)CC1,26
2,COc1cc(N2CCC(N3CCN(C)CC3)CC2)ccc1Nc1ncc(Cl)c(Nc2ccccc2S(=O)(=O)C(C)C)n1,11
3,CCOc1cc(N2CCC(N3CCCCC3)CC2)ccc1Nc1nc(Nc2ccccc2S(=O)(=O)C(C)C)c2cn[nH]c2n1,100

# Molecular target: BMP2K (human) (UniProt Q9NSY1)
# Assay: KINOMEscan competition binding
# Settings: compound 10.0 µM
row,SMILES,"kinase still bound, per cent of control [%]"
1,CCN1CCN(Cc2ccc(NC(=O)c3ccc(C)c(/C=C/c4cnc(Nc5cc(N6CCNCC6)nc(C)n5)cn4)c3)cc2C(F)(F)F)CC1,100
2,COc1cc(N2CCC(N3CCN(C)CC3)CC2)ccc1Nc1ncc(Cl)c(Nc2ccccc2S(=O)(=O)C(C)C)n1,2.8
3,CCOc1cc(N2CCC(N3CCCCC3)CC2)ccc1Nc1nc(Nc2ccccc2S(=O)(=O)C(C)C)c2cn[nH]c2n1,47

# Molecular target: LIMK2 (human) (UniProt P53671)
# Assay: KINOMEscan competition binding
# Settings: compound 10.0 µM
row,SMILES,"kinase still bound, per cent of control [%]"
1,CCN1CCN(Cc2ccc(NC(=O)c3ccc(C)c(/C=C/c4cnc(Nc5cc(N6CCNCC6)nc(C)n5)cn4)c3)cc2C(F)(F)F)CC1,9.6
2,COc1cc(N2CCC(N3CCN(C)CC3)CC2)ccc1Nc1ncc(Cl)c(Nc2ccccc2S(=O)(=O)C(C)C)n1,6.5
3,CCOc1cc(N2CCC(N3CCCCC3)CC2)ccc1Nc1nc(Nc2ccccc2S(=O)(=O)C(C)C)c2cn[nH]c2n1,51

# Molecular target: MET (human) (UniProt P08581)
# Assay: KINOMEscan competition binding
# Settings: compound 10.0 µM
row,SMILES,"kinase still bound, per cent of control [%]"
1,CCN1CCN(Cc2ccc(NC(=O)c3ccc(C)c(/C=C/c4cnc(Nc5cc(N6CCNCC6)nc(C)n5)cn4)c3)cc2C(F)(F)F)CC1,78
2,COc1cc(N2CCC(N3CCN(C)CC3)CC2)ccc1Nc1ncc(Cl)c(Nc2ccccc2S(=O)(=O)C(C)C)n1,0
3,CCOc1cc(N2CCC(N3CCCCC3)CC2)ccc1Nc1nc(Nc2ccccc2S(=O)(=O)C(C)C)c2cn[nH]c2n1,100

# Molecular target: RET (human) (UniProt P07949)
# Assay: KINOMEscan competition binding
# Settings: compound 10.0 µM
row,SMILES,"kinase still bound, per cent of control [%]"
1,CCN1CCN(Cc2ccc(NC(=O)c3ccc(C)c(/C=C/c4cnc(Nc5cc(N6CCNCC6)nc(C)n5)cn4)c3)cc2C(F)(F)F)CC1,0.15
2,CCOc1cc(N2CCC(N3CCCCC3)CC2)ccc1Nc1nc(Nc2ccccc2S(=O)(=O)C(C)C)c2cn[nH]c2n1,100
3,CCN1CCN(Cc2ccc(NC(=O)c3ccc(C)c(Oc4ccnc5[nH]ccc45)c3)cc2C(F)(F)F)CC1,0

# Molecular target: AKT2 (human) (UniProt P31751)
# Assay: KINOMEscan competition binding
# Settings: compound 10.0 µM
row,SMILES,"kinase still bound, per cent of control [%]"
1,CCN1CCN(Cc2ccc(NC(=O)c3ccc(C)c(/C=C/c4cnc(Nc5cc(N6CCNCC6)nc(C)n5)cn4)c3)cc2C(F)(F)F)CC1,46
2,COc1cc(N2CCC(N3CCN(C)CC3)CC2)ccc1Nc1ncc(Cl)c(Nc2ccccc2S(=O)(=O)C(C)C)n1,40
3,CCOc1cc(N2CCC(N3CCCCC3)CC2)ccc1Nc1nc(Nc2ccccc2S(=O)(=O)C(C)C)c2cn[nH]c2n1,100

# Molecular target: CDK9 (human) (UniProt P50750)
# Sequence (P50750 whole entry, looked up): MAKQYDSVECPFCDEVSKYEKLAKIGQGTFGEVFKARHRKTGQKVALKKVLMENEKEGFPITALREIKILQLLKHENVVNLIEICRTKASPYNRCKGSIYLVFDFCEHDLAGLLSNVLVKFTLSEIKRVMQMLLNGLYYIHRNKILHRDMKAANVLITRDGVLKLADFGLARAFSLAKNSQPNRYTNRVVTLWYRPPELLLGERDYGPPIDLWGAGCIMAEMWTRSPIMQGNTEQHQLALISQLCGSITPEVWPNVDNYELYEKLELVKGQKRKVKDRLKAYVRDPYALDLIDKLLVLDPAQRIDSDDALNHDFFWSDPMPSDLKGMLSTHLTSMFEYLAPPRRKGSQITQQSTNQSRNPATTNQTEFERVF
# Assay: KINOMEscan competition binding
# Settings: compound 10.0 µM
row,SMILES,"kinase still bound, per cent of control [%]"
1,CCN1CCN(Cc2ccc(NC(=O)c3ccc(C)c(/C=C/c4cnc(Nc5cc(N6CCNCC6)nc(C)n5)cn4)c3)cc2C(F)(F)F)CC1,99
2,COc1cc(N2CCC(N3CCN(C)CC3)CC2)ccc1Nc1ncc(Cl)c(Nc2ccccc2S(=O)(=O)C(C)C)n1,40
3,CCOc1cc(N2CCC(N3CCCCC3)CC2)ccc1Nc1nc(Nc2ccccc2S(=O)(=O)C(C)C)c2cn[nH]c2n1,100
4,CCN1CCN(Cc2ccc(NC(=O)c3ccc(C)c(Oc4ccnc5[nH]ccc45)c3)cc2C(F)(F)F)CC1,5.8

# System: KIT (human), P10721 [V559D]
# Assay: KINOMEscan competition binding
# Settings: compound 10.0 µM
row,SMILES,"kinase still bound, per cent of control [%]"
1,CCN1CCN(Cc2ccc(NC(=O)c3ccc(C)c(/C=C/c4cnc(Nc5cc(N6CCNCC6)nc(C)n5)cn4)c3)cc2C(F)(F)F)CC1,0.05
2,COc1cc(N2CCC(N3CCN(C)CC3)CC2)ccc1Nc1ncc(Cl)c(Nc2ccccc2S(=O)(=O)C(C)C)n1,0.1
3,CCOc1cc(N2CCC(N3CCCCC3)CC2)ccc1Nc1nc(Nc2ccccc2S(=O)(=O)C(C)C)c2cn[nH]c2n1,86
4,CCN1CCN(Cc2ccc(NC(=O)c3ccc(C)c(Oc4ccnc5[nH]ccc45)c3)cc2C(F)(F)F)CC1,0

# Molecular target: LCK (human) (UniProt P06239)
# Assay: KINOMEscan competition binding
# Settings: compound 10.0 µM
row,SMILES,"kinase still bound, per cent of control [%]"
1,CCN1CCN(Cc2ccc(NC(=O)c3ccc(C)c(/C=C/c4cnc(Nc5cc(N6CCNCC6)nc(C)n5)cn4)c3)cc2C(F)(F)F)CC1,0.45
2,COc1cc(N2CCC(N3CCN(C)CC3)CC2)ccc1Nc1ncc(Cl)c(Nc2ccccc2S(=O)(=O)C(C)C)n1,0.1
3,CCOc1cc(N2CCC(N3CCCCC3)CC2)ccc1Nc1nc(Nc2ccccc2S(=O)(=O)C(C)C)c2cn[nH]c2n1,84
4,CCN1CCN(Cc2ccc(NC(=O)c3ccc(C)c(Oc4ccnc5[nH]ccc45)c3)cc2C(F)(F)F)CC1,0.8

# Molecular target: TEK (human) (UniProt Q02763)
# Assay: KINOMEscan competition binding
# Settings: compound 10.0 µM
row,SMILES,"kinase still bound, per cent of control [%]"
1,CCN1CCN(Cc2ccc(NC(=O)c3ccc(C)c(/C=C/c4cnc(Nc5cc(N6CCNCC6)nc(C)n5)cn4)c3)cc2C(F)(F)F)CC1,0
2,COc1cc(N2CCC(N3CCN(C)CC3)CC2)ccc1Nc1ncc(Cl)c(Nc2ccccc2S(=O)(=O)C(C)C)n1,0
3,CCOc1cc(N2CCC(N3CCCCC3)CC2)ccc1Nc1nc(Nc2ccccc2S(=O)(=O)C(C)C)c2cn[nH]c2n1,100
4,CCN1CCN(Cc2ccc(NC(=O)c3ccc(C)c(Oc4ccnc5[nH]ccc45)c3)cc2C(F)(F)F)CC1,0

# Molecular target: RIOK1 (human) (UniProt Q9BRS2)
# Assay: KINOMEscan competition binding
# Settings: compound 10.0 µM
row,SMILES,"kinase still bound, per cent of control [%]"
1,CCN1CCN(Cc2ccc(NC(=O)c3ccc(C)c(/C=C/c4cnc(Nc5cc(N6CCNCC6)nc(C)n5)cn4)c3)cc2C(F)(F)F)CC1,100
2,COc1cc(N2CCC(N3CCN(C)CC3)CC2)ccc1Nc1ncc(Cl)c(Nc2ccccc2S(=O)(=O)C(C)C)n1,2.6
3,CCOc1cc(N2CCC(N3CCCCC3)CC2)ccc1Nc1nc(Nc2ccccc2S(=O)(=O)C(C)C)c2cn[nH]c2n1,100

# Molecular target: FGR (human) (UniProt P09769)
# Sequence (P09769 whole entry, looked up): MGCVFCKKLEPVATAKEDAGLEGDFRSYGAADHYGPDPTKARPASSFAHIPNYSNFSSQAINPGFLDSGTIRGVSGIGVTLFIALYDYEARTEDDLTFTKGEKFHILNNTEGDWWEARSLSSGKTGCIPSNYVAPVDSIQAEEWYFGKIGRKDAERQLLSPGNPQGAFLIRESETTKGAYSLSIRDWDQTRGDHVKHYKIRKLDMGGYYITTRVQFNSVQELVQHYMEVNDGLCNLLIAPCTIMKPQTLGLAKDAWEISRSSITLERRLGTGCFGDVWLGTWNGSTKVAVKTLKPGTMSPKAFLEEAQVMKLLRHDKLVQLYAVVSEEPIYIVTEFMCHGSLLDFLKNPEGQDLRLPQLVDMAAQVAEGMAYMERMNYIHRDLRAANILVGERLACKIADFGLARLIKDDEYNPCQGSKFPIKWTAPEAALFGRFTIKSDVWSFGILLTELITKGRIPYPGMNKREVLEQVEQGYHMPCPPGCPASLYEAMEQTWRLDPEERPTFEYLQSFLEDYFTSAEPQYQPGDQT
# Assay: KINOMEscan competition binding
# Settings: compound 10.0 µM
row,SMILES,"kinase still bound, per cent of control [%]"
1,CCN1CCN(Cc2ccc(NC(=O)c3ccc(C)c(/C=C/c4cnc(Nc5cc(N6CCNCC6)nc(C)n5)cn4)c3)cc2C(F)(F)F)CC1,4.5
2,COc1cc(N2CCC(N3CCN(C)CC3)CC2)ccc1Nc1ncc(Cl)c(Nc2ccccc2S(=O)(=O)C(C)C)n1,2.8
3,CCOc1cc(N2CCC(N3CCCCC3)CC2)ccc1Nc1nc(Nc2ccccc2S(=O)(=O)C(C)C)c2cn[nH]c2n1,82
4,CCN1CCN(Cc2ccc(NC(=O)c3ccc(C)c(Oc4ccnc5[nH]ccc45)c3)cc2C(F)(F)F)CC1,1.2
